{"source": "patent US20220143198A1", "about": "“COMPOSITIONS AND METHODS RELATED TO TETHERED KETHOXAL DERIVATIVES” (The University of Chicago, priority 2019, published 2022)", "key": {"guanosine [1]": {"tested_on": "guanosine", "test": "Reversibility of kethoxal derivatives by adjusting pH (kethoxal-guanosine adduct dissociation)", "assay_type": "physicochemical"}, "Cells": {"tested_on": "Cells", "test": "Cell permeability and radical-mediated biotinylation of RNA from treated cells (dot blot)", "assay_type": "cell-based", "settings": "cells treated 10 min, versus control sample", "description": "A second set of test were performed to test cell permeability of phenol-kethoxal and diphenol-kethoxal and if the labeling enhances radical-mediated biotinylation. Cells were treated with phenol-kethoxal and diphenol-kethoxal for 10 min, respectively, and RNA isolated from treated cells. An in vitro biotinylation reaction was performed by mixing these kethoxal derivative-labeled RNAs with biotin-phenol, horseradish peroxidase (HRP), and H2O2, see FIG. 4. HRP is an enzyme that mimics APEX with higher radical generation activity in vitro. The biotinylated RNAs were purified and subjected to dot blot analysis."}, "[2]": {"tested_on": "12-mer synthetic RNA oligo containing four guanine bases", "test": "Labeling activity of phenol-kethoxal and diphenol-kethoxal on 12-mer synthetic RNA oligo (MALDI-TOF)", "assay_type": "biochemical", "settings": "10 min incubation", "description": "To test the labeling activity of phenol-kethoxal and diphenol-kethoxal, the two compounds were incubated with a 12-mer synthetic RNA oligo containing four guanine bases, respectively. After 10 min, the reactions were cleaned-up and analyzed by MALDI-TOF."}, "guanosine [3]": {"tested_on": "guanosine", "test": "Reversibility of kethoxal derivatives using GTP for competition (LCMS of free guanosine)", "assay_type": "physicochemical", "settings": "1:1 ratio"}, "[4]": {"settings": "pH = 5.8, 10 min after adjusting from pH 10.1, 1:1 ratio"}, "[5]": {"settings": "pH = 5.8, 4 h after adjusting from pH 10.1, 1:1 ratio"}, "[6]": {"settings": "pH = 5.8, 24 h after adjusting from pH 10.1, 1:1 ratio"}, "[7]": {"settings": "pH = 10.1, 10 min, kethoxal derivative and guanosine 1:1"}, "[8]": {"settings": "pH = 7.0, 10 min, excess GTP added after 10 min"}, "[9]": {"settings": "pH = 7.0, 2 h, excess GTP competitor"}, "[10]": {"settings": "pH = 7.0, 24 h, excess GTP competitor"}}}
{"smiles": "[N-]=[N+]=NCCOC(F)C(=O)C=O", "note": "(centres unmarked) [drawing 74]", "values": [{"measurement": "Conversion of guanosine", "setting": "guanosine [1]; [4]", "result": 50.1, "unit": "%"}, {"measurement": "Conversion of guanosine", "setting": "guanosine [1]; [5]", "result": 57.1, "unit": "%"}, {"measurement": "Conversion of guanosine", "setting": "guanosine [1]; [6]", "result": 58.2, "unit": "%"}, {"measurement": "Conversion of guanosine", "setting": "guanosine [1]; [7]", "result": 46.2, "unit": "%"}]}
{"smiles": "[N-]=[N+]=NCCOCC(=O)C=O", "note": "[drawing 64]", "values": [{"measurement": "Conversion of guanosine", "setting": "guanosine [1]; [5]", "result": 75.0, "unit": "%"}, {"measurement": "Conversion of guanosine", "setting": "guanosine [1]; [6]", "result": 76.1, "unit": "%"}, {"measurement": "Conversion of guanosine", "setting": "guanosine [1]; [7]", "result": 74.6, "unit": "%"}]}
{"smiles": "CC(N=[N+]=[N-])C(=O)C=O", "note": "(centres unmarked) [drawing 66]", "values": [{"measurement": "Conversion of guanosine", "setting": "guanosine [1]; [4]", "result": 65.6, "unit": "%"}, {"measurement": "Conversion of guanosine", "setting": "guanosine [1]; [5]", "result": 65.2, "unit": "%"}, {"measurement": "Conversion of guanosine", "setting": "guanosine [1]; [6]", "result": 58.7, "unit": "%"}, {"measurement": "Conversion of guanosine", "setting": "guanosine [1]; [7]", "result": 65.9, "unit": "%"}]}
{"smiles": "[N-]=[N+]=NCCOC(F)(F)C(=O)C=O", "note": "[drawing 75]", "values": [{"measurement": "Conversion of guanosine", "setting": "guanosine [1]; [4]", "result": 49.2, "unit": "%"}, {"measurement": "Conversion of guanosine", "setting": "guanosine [1]; [5]", "result": 55.1, "unit": "%"}, {"measurement": "Conversion of guanosine", "setting": "guanosine [1]; [6]", "result": 54.7, "unit": "%"}, {"measurement": "Conversion of guanosine", "setting": "guanosine [1]; [7]", "result": 41.5, "unit": "%"}]}
{"smiles": "CC(OCCn1cc(-c2ccc(O)c(O)c2)nn1)C(=O)C=O", "note": "(centres unmarked) [diphenol-kethoxal]", "values": [{"measurement": "Biotin signal of RNA from treated cells after HRP/biotin-phenol/H2O2 biotinylation", "setting": "Cells", "result": "stronger biotin signals compared with the control sample"}, {"measurement": "Labeling activity on RNA oligo", "setting": "[2]", "result": "label the oligo efficiently, with all four guanines on all oligo molecules modified"}]}
{"smiles": "CC(C(=O)C=O)N(C)C(=O)CN=[N+]=[N-]", "note": "(centres unmarked) [drawing 71]", "values": [{"measurement": "Conversion of guanosine", "setting": "guanosine [1]; [5]", "result": 31.9, "unit": "%"}, {"measurement": "Conversion of guanosine", "setting": "guanosine [1]; [6]", "result": 26.5, "unit": "%"}, {"measurement": "Conversion of guanosine", "setting": "guanosine [1]; [7]", "result": 35.6, "unit": "%"}]}
{"smiles": "CC(OC(=O)CN=[N+]=[N-])C(=O)C=O", "note": "(centres unmarked) [drawing 65]", "values": [{"measurement": "Conversion of guanosine", "setting": "guanosine [1]; [5]", "result": 77.3, "unit": "%"}, {"measurement": "Conversion of guanosine", "setting": "guanosine [1]; [6]", "result": 77.2, "unit": "%"}, {"measurement": "Conversion of guanosine", "setting": "guanosine [1]; [7]", "result": 75.5, "unit": "%"}]}
{"smiles": "CC(OCCn1cc(-c2ccc(O)cc2)nn1)C(=O)C=O", "note": "(centres unmarked) [phenol-kethoxal]", "values": [{"measurement": "Biotin signal of RNA from treated cells after HRP/biotin-phenol/H2O2 biotinylation", "setting": "Cells", "result": "stronger biotin signals compared with the control sample"}, {"measurement": "Labeling activity on RNA oligo", "setting": "[2]", "result": "label the oligo efficiently, with all four guanines on all oligo molecules modified"}]}
{"smiles": "[N-]=[N+]=NCCOCCC(=O)C=O", "note": "[drawing 72]", "values": [{"measurement": "Conversion of guanosine", "setting": "guanosine [1]; [5]", "result": 16.6, "unit": "%"}, {"measurement": "Conversion of guanosine", "setting": "guanosine [1]; [7]", "result": 19.7, "unit": "%"}]}
{"smiles": "CC(Br)C(=O)C=O", "note": "(centres unmarked) [drawing 67]", "values": [{"measurement": "Conversion of guanosine", "setting": "guanosine [1]; [5]", "result": 64.3, "unit": "%"}, {"measurement": "Conversion of guanosine", "setting": "guanosine [1]; [6]", "result": 62.9, "unit": "%"}, {"measurement": "Conversion of guanosine", "setting": "guanosine [1]; [7]", "result": 62.7, "unit": "%"}]}
{"smiles": "CC(OCCN=[N+]=[N-])C(=O)C=O", "note": "(centres unmarked) [drawing 62]", "values": [{"measurement": "Conversion of guanosine", "setting": "guanosine [1]; [4]", "result": 79.8, "unit": "%"}, {"measurement": "Conversion of guanosine", "setting": "guanosine [1]; [5]", "result": 80.2, "unit": "%"}, {"measurement": "Conversion of guanosine", "setting": "guanosine [1]; [6]", "result": 81.8, "unit": "%"}, {"measurement": "Conversion of guanosine", "setting": "guanosine [1]; [7]", "result": 79.8, "unit": "%"}]}
{"smiles": "O=CC(=O)c1ccccc1", "note": "[drawing 73]", "values": [{"measurement": "Conversion of guanosine", "setting": "guanosine [1]; [4]", "result": 12.2, "unit": "%"}, {"measurement": "Conversion of guanosine", "setting": "guanosine [1]; [5]", "result": 10.7, "unit": "%"}, {"measurement": "Conversion of guanosine", "setting": "guanosine [1]; [6]", "result": 12.7, "unit": "%"}, {"measurement": "Conversion of guanosine", "setting": "guanosine [1]; [7]", "result": 28.3, "unit": "%"}]}
{"smiles": "CC(C)(OCCN=[N+]=[N-])C(=O)C=O", "note": "[drawing 63]", "values": [{"measurement": "Conversion of guanosine", "setting": "guanosine [1]; [5]", "result": 77.6, "unit": "%"}, {"measurement": "Conversion of guanosine", "setting": "guanosine [1]; [6]", "result": 80.3, "unit": "%"}, {"measurement": "Conversion of guanosine", "setting": "guanosine [1]; [7]", "result": 77.0, "unit": "%"}]}
{"smiles": "[N-]=[N+]=NCCOCCC(=O)C=O", "note": "[drawing 87]", "values": [{"measurement": "Conversion of guanosine under competition condition", "setting": "guanosine [3]; [8]", "result": 41.3, "unit": "%"}, {"measurement": "Conversion of guanosine under competition condition", "setting": "guanosine [3]; [9]", "result": 12.6, "unit": "%"}, {"measurement": "Conversion of guanosine under competition condition", "setting": "guanosine [3]; [10]", "result": 11.2, "unit": "%"}]}
{"smiles": "[N-]=[N+]=NCCCC(=O)C=O", "note": "[drawing 85]", "values": [{"measurement": "Conversion of guanosine under competition condition", "setting": "guanosine [3]; [8]", "result": 46.2, "unit": "%"}, {"measurement": "Conversion of guanosine under competition condition", "setting": "guanosine [3]; [9]", "result": 21.0, "unit": "%"}, {"measurement": "Conversion of guanosine under competition condition", "setting": "guanosine [3]; [10]", "result": 22.1, "unit": "%"}]}
{"smiles": "CC(C)(OCCN=[N+]=[N-])C(=O)C=O", "note": "[drawing 78]", "values": [{"measurement": "Conversion of guanosine under competition condition", "setting": "guanosine [3]; [8]", "result": 51.6, "unit": "%"}, {"measurement": "Conversion of guanosine under competition condition", "setting": "guanosine [3]; [9]", "result": 55.9, "unit": "%"}, {"measurement": "Conversion of guanosine under competition condition", "setting": "guanosine [3]; [10]", "result": 33.6, "unit": "%"}]}
{"smiles": "CC(OC(=O)CN=[N+]=[N-])C(=O)C=O", "note": "(centres unmarked) [drawing 80]", "values": [{"measurement": "Conversion of guanosine under competition condition", "setting": "guanosine [3]; [8]", "result": 54.4, "unit": "%"}, {"measurement": "Conversion of guanosine under competition condition", "setting": "guanosine [3]; [9]", "result": 44.6, "unit": "%"}, {"measurement": "Conversion of guanosine under competition condition", "setting": "guanosine [3]; [10]", "result": 37.5, "unit": "%"}]}
{"smiles": "[N-]=[N+]=NCCCC(=O)C=O", "note": "[drawing 70]", "values": [{"measurement": "Conversion of guanosine", "setting": "guanosine [1]; [5]", "result": 19.0, "unit": "%"}, {"measurement": "Conversion of guanosine", "setting": "guanosine [1]; [6]", "result": 14.7, "unit": "%"}, {"measurement": "Conversion of guanosine", "setting": "guanosine [1]; [7]", "result": 30.2, "unit": "%"}]}
